Experimental data taken from US20130065227A1, “METHODS OF INCREASING MACROPINOCYTOSIS IN CANCER CELLS” (priority 2010, published 2013).

Assays:
Type in all cases: cell-based
[1] = system: DU145; experiment: Uptake of AS1411 by macropinocytosis (MP); details: DU145; Cancer, prostate
Protocol: FIG. 2 are graphs showing that AS1411 is internalized by different endocytic mechanisms in DU145 cancer cells and in non-malignant Hs27 cells. DU145 or Hs27 cells were plated 18 h before uptake analysis. Cells were pre-treated as described with inhibitor (gray histogram) or the corresponding vehicle control (black histogram) before addition of 10 μM FL-AS1411 and incubation at 37° C. for 2 h. After incubation, cells were harvested and analyzed by flow cytometry. Pre-treatment conditions were at 37° C. with: (Panel A) 5 μM Cytochalasin D for 30 min; (Panel B) 80 μM Dynasore for 30 min; or (Panel C) 3 mM amiloride for 1 h. All experiments were repeated at least three times and representative data are shown. Solid gray histograms represent background autofluorescence of unstained cells.
To analyze uptake of the oligodeoxynucleotides or dextran-10K (macropinocytic marker) by flow cytometry, 2×10^5 cells in fresh supplemented culture medium (2.5 ml) were plated into 6-well plates for 18 h. After complete adhesion, the cells were incubated with 5′-FAM tagged oligodeoxynucleotides or Alexa Fluor 488 tagged dextran-10K and incubated as indicated in the Description of the Drawings. Cells were washed once with ice-cold PBS, incubated with 1 μg/ml 7-amino-actinomycin D (7-AAD) for 5 min on ice or 1 μg/ml propidium iodide (PI), and washed twice with ice-cold PBS. […]

[2] = system: MCF7; experiment: Stimulation of macropinocytosis (dextran uptake); details: MCF7; Cancer, breast
Protocol: (§1) FIG. 10 are graphs showing the stimulation of macropinocytosis by GROs. Breast carcinoma cells (MDA-MB-231, MCF-7) or non-malignant breast epithelial cells (MCF10A) cells were plated 18 hr before treatment with 10 μM tAS1411 or 10 μM tCRO or water in complete DMEM medium at 37° C. for 48 hr or 72 hr. After treatment, cell medium was changed for fresh complete medium containing 0.2 mg/ml dextran-10K labeled with Alexa Fluor 488 and cells were incubated for 30 min at 37° C. Cells were then incubated on ice with 1 mg/ml PI in PBS, harvested, and analyzed by flow cytometry. Uptake was normalized to no pre-treatment controls and bars show the mean and SE of three independent experiments.
(§2) To analyze uptake of the oligodeoxynucleotides or dextran-10K (macropinocytic marker) by flow cytometry, 2×10^5 cells in fresh supplemented culture medium (2.5 ml) were plated into 6-well plates for 18 h. After complete adhesion, the cells were incubated with 5′-FAM tagged oligodeoxynucleotides or Alexa Fluor 488 tagged dextran-10K and incubated as indicated in the Description of the Drawings. Cells were washed once with ice-cold PBS, incubated with 1 μg/ml 7-amino-actinomycin D (7-AAD) for 5 min on ice or 1 μg/ml propidium iodide (PI), and washed twice with ice-cold PBS. Cells were then treated with 0.01% trypsin/0.5 mM EDTA (300 μl) for 3 min prior addition 3 ml supplemented culture medium. The cells were then centrifuged and resuspended in 0.5 ml of 1% paraformaldehyde for analysis by flow cytometry using a FACScalibur cytometer (BD Biosciences, Mountain View, Calif.).
(§3) AS1411 causes a change in cancer cell morphology that is characterized by vacuolization, irregular nuclei, and swollen cells (Xu et al., 2001, J. Biol. Chem., 276:43221-30). Therefore, the effect of AS1411 on macropinocytosis in DU145 cells and non-malignant Hs27 cells was investigated. […] As in all of the flow cytometry experiments, cells were gated to exclude permeable cells, discounting the possibility that this increase was due to cell death. […] One implication of the finding that AS1411 causes hyperstimulation of macropinocytosis is that treatment of AS1411 might actually promote its own internalization by cancer cells. To test this idea, DU145 cells were pre-treated for 24 h with tAS1411, then added FL-AS1411 and evaluated uptake after an additional 2 h using flow cytometry. […] This idea is not necessarily inconsistent with the time course data shown in FIG. 1A because the fluorescence signal may decrease over time for a number of reasons, including exocytosis of the ligand and fluorescence quenching due to protein binding or environmental factors (the fluorophore used for flow cytometry is particularly sensitive to acidic environments). […]

[3] = system: MDA-MB-231; experiment: Stimulation of macropinocytosis (dextran uptake); details: MDA-MB-231; Cancer, breast
Protocol: as §1, §2, §3

5′-d(GGTGGTGGTGGTTGTGGTGGTGGTGG) [AS1411]
Yes: Update by MP? [1] | Stimulate MP? [2] | Stimulate MP? [3]
